Laboratory results published in patent publication US7655216B2, “Vaccine for activating helper function of CD8+ Tcells” (University of Pittsburgh - Of the Commonwealth of Higher …, priority 2007, dated 2010).
“Also recorded” adds a separate entry of the source. The star is where a group is joined. Cbz = O=C(OCc1ccccc1)*; CH2F = FC*

Tests used:
[1] = system: immature DCs co-cultured with effector-type CD8+ T cells; type: cell-based, human
PI-9 in DCs = assay: Intracellular PI-9 expression in DCs (flow cytometry); type: cell-based, human
Protocol: Flow cytometry. Cell surface phenotype was analyzed by flow cytometry using Beckman Coulter XL. The FITC and PE-labeled isotype controls (mouse IgG1 and IgG2a), anti-human CD86, anti-human perforin were obtained from BD Pharmingen. CD83 monoclonal antibody was purchased from Immunotech and PE-labeled Granzyme B antibody was obtained from Cell Sciences. Goat anti-mouse IgG-FITC conjugated was obtained from Caltag Laboratories. For detection of intracellular PI-9, PI-9 specific mouse monoclonal IgG1 antibody was used as described (Bladergroen et al., J. Immunol. 166:3218-3225 (2001)). Briefly, for intracellular staining of PI-9, DCs were washed and then blocked with human Ig for 10 minutes at room temperature. Subsequently, cells were permeabilized with 300 μl of Permiflow (Invirion, Frankfort, Mich.) for 60 minutes at room temperature and then washed. The cells were stained with unconjugated anti human PI-9 antibody for 20 minutes at room temperature followed by staining with FITC conjugated goat anti-mouse IgG antibody. Granzyme B and perforin staining were performed according to manufacturer's protocol, using Permiflow as permeabilization reagent. […]
Intracellular expression of PI-9 (open profiles) in DCs has been analyzed by flow cytometry before and after (15 and 120 minutes) the exposure to recombinant TNFα (50 ng/ml).

[2] = system: SEB-loaded DCs co-cultured with memory-type CD8+ T cells; type: cell-based, human
MC38 adenocarcinoma = system: MC38 adenocarcinoma; parameters: species or system C57BL/6 mice; settings: mouse, in vivo, sc
SEB loaded DCs = type: cell-based, human

IETD-CHO
CTL-induced DC death (survival of DCs) [1]: abrogated the CTL-induced DC death

Infliximab
memory-type CD8+ T cell-induced induction of PI-9 in DCs (PI-9 in DCs; 10 hour time point): blocks | DC survival in co-culture with memory-type CD8+ T cells [2]: equally effective in converting the memory T cell-induced DC activation into memory T cell-induced DC death; also recorded: reduces DC survival

SIINFEKL [OVA257-264]
induction of MC38-specific CTL activity (killing MC38) (MC38 adenocarcinoma): more effective in killing MC38 than a DC vaccine loaded only with tumor antigen

TNFα
resistance of immature DCs to CTL killing [1]: acquired resistance to CTL killing | induction of PI-9 in DCs (PI-9 in DCs; recombinant TNFα 50 ng/ml, 15 and 120 minutes): Rapid induction of PI-9

KAVYNFATC [LCMVgp33-41]
induction of MC38-specific CTL activity (killing MC38) (MC38 adenocarcinoma): more effective in killing MC38 than a DC vaccine loaded only with tumor antigen

O=C(O)CN(CCOCCOCCN(CC(=O)O)CC(=O)O)CC(=O)O [EGTA]
DC killing by effector-type CD8+ T cells [1]: completely eliminated

Cbz-IETD-CH2F
CTL-induced DC death (survival of DCs) [1]: abrogated the CTL-induced DC death

Concanamycin A
DC activation / phenotypic maturation (CD86, CD83) (SEB loaded DCs): enhance DC activation | DC killing by effector-type CD8+ T cells [1]: completely eliminated; also recorded: abrogated their DC-killing ability

B1: soluble TNF receptor I: recombinant human soluble TNF-RI (R&D Systems) (protein, UniProt P19438 30-211, looked up)
extracellular domain: LVPHLGDREKRDSVCPQGKYIHPQNNSICCTKCHKGTYLYNDCPGPGQDTDCRECESGSFTASENHLRHCLSCSKCRKEMGQVEISSCTVDRDTVCGCRKNQYRHYWSENLFQCFNCSLCLNGTVHLSCQEKQNTVCTCHAGFFLRENECVSCSNCKKSLECTKLCLPQIENVKGTEDSGTT
modifications: extracellular domain
DC survival in co-culture with memory-type CD8+ T cells [2]: equally effective in converting the memory T cell-induced DC activation into memory T cell-induced DC death
